Laboratory results taken from patent US20260265220A1, “GALPHA12 INHIBITORS AND METHODS USING SAME” (RUTGERS, THE STATE UNIVERSITY OF NEW JERSEY, priority 2022, published 2026).
Where “and” joins values, the source holds several entries; their conditions need not be identical. Equal values may be shown once. Read-outs that look alike come from different tables or passages of the source.

Assays:
[1] = test system: MLC phosphorylation (pMLC); assay: Immunoblot analysis of myosin light chain phosphorylation (pMLC) in airway smooth muscle cells; assay type: cell-based, human; conditions: compound at 100 μM (FIGS. 4C-4D)
Description: Compounds 1-3 were evaluated for inhibition of AKT and MLC phosphorylation. As described elsewhere herein, phosphorylation of AKT and/or MLC can occur with activation of the Gα12 pathway. Accordingly, in certain embodiments, detection of a decrease in pAKT and/or pMLC indicates inhibition of Gα12.
The immunoblot analysis of phosphorylation of myosin light chain (pMLC) was used as a surrogate for ASM contraction. In parallel, phosphorylation of AKT was analogously assessed. AKT is a downstream substrate for phosphoinositide 3-kinase (PI3K) activity, can modulate the activation of the Gα12 pathway in primary human airway smooth muscle cells. These cells are the pivotal cells regulating bronchomotor tone in asthma and chronic obstructive pulmonary disease (COPD) which is emphysema or chronic bronchitis.
The analogues described herein were further assessed for potency and efficacy in inhibiting AKT and pMLC phosphorylation induced by contractile agonists, carbachol, or histamine. These contractile agonists are pivotal in causing airway smooth muscle contraction and airway obstruction in asthma and COPD.

mTOR(h) = biological target: T1, mTOR(h) (Homo sapiens, UniProt P42345); assay: Eurofins in vitro kinase activity assay; assay type: biochemical; conditions: read-out: mTOR(h) kinase activity (human kinase inhibition data)
T1 construct: purchased Eurofins
Description: (§1) Using the Eurofins™ platform, a kinase activity assay was performed to identify human kinases inhibited by compound 1. To determine the effects of the compound on kinase activity, varying concentrations of compound 1 (1, 10 and 100 μM) were used with one technical replicate in a standard in vitro kinase activation assay.
(§2) This platform was used to determine the effects of compound 1 on the activity of 113 unique human kinases. Thresholds for kinase activity of interest was set at less than or equal to 60% […] (i.e., for antagonists) or enhanced activity at or above 140% (i.e., for agonists). Further, the validity of the results were confirmed by the occurrence of a dose-dependent response.

PI3Kδ = biological target: T2, PI3Kδ (Homo sapiens, UniProt O00329); assay: Eurofins in vitro kinase activity assay; assay type: biochemical
T2 construct: purchased Eurofins
T2 sequence (O00329 whole entry): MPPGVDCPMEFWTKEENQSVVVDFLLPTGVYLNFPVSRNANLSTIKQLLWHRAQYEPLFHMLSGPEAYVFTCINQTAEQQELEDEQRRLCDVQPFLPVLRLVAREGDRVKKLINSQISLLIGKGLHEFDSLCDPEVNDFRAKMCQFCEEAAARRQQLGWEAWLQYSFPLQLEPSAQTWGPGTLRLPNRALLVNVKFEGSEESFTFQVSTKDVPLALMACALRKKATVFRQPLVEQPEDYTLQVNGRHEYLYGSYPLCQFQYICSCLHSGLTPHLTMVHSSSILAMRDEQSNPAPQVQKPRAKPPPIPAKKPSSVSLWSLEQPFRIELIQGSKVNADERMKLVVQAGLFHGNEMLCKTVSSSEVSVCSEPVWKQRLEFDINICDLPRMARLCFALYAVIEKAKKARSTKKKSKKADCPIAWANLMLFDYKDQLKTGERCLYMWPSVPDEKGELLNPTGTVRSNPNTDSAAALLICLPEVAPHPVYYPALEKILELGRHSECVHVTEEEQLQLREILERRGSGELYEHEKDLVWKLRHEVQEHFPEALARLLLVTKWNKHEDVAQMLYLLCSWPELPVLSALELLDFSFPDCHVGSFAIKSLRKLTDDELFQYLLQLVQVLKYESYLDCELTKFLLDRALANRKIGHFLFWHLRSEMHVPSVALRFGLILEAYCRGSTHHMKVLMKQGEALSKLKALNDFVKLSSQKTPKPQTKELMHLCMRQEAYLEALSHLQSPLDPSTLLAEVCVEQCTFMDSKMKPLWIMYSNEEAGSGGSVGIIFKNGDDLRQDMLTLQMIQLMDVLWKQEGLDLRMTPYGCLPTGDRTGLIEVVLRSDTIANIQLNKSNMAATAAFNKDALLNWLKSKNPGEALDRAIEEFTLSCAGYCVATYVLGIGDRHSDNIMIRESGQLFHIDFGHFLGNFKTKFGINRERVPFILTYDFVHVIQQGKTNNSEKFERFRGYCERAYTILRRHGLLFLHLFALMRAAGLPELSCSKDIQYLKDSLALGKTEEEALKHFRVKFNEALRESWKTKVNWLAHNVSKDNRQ
T2 sequence (P27986 whole entry partner): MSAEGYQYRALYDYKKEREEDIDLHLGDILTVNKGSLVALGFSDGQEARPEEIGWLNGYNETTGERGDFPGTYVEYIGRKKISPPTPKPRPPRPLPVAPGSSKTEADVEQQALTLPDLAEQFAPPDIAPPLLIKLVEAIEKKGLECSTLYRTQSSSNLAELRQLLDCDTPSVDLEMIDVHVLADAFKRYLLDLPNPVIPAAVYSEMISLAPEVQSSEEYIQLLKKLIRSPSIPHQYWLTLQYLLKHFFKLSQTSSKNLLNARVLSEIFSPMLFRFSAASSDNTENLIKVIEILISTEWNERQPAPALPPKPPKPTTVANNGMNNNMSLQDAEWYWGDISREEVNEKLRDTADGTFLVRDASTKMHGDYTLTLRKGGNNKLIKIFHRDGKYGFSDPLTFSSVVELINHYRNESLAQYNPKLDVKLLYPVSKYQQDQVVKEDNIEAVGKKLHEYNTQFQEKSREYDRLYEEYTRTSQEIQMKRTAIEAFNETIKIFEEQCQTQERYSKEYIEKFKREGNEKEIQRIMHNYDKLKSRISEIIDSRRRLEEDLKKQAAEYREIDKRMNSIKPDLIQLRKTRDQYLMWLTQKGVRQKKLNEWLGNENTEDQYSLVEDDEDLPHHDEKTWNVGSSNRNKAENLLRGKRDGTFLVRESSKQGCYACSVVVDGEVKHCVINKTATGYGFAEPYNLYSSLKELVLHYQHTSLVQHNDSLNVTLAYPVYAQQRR
Description: as §1, §2

PRAK(h)/MAPKAPK5 = biological target: T3, PRAK(h)/MAPKAPK5 (Homo sapiens, UniProt Q8IW41); assay: Eurofins in vitro kinase activity assay; assay type: biochemical
T3 construct: purchased Eurofins
T3 sequence (Q8IW41 1-473): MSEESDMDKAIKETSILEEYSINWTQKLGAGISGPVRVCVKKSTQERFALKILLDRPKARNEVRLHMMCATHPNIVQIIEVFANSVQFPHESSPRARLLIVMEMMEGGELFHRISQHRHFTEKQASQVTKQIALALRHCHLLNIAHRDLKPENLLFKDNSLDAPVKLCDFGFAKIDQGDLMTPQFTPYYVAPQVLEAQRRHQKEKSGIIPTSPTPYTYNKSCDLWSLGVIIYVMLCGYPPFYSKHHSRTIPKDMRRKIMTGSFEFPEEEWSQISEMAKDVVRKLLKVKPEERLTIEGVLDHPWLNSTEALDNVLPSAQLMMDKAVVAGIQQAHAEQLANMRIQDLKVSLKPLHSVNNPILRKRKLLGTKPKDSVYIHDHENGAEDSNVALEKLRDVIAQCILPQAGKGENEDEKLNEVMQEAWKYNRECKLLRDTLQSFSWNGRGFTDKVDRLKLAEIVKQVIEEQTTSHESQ
Description: as §1, §2

ATR/ATRIP(h) = biological target: T4, ATR/ATRIP(h) (Homo sapiens, UniProt Q13535); assay: Eurofins in vitro kinase activity assay; assay type: biochemical; conditions: read-out: ATR/ATRIP(h) kinase activity (human kinase inhibition data)
T4 construct: purchased Eurofins
Description: as §1, §2

Fms(h) = biological target: T5, Fms(h) (Homo sapiens, UniProt P07333); assay: Eurofins in vitro kinase activity assay; assay type: biochemical; conditions: read-out: Fms(h) kinase activity (human kinase inhibition data)
T5 construct: purchased Eurofins
T5 sequence (P07333 20-972): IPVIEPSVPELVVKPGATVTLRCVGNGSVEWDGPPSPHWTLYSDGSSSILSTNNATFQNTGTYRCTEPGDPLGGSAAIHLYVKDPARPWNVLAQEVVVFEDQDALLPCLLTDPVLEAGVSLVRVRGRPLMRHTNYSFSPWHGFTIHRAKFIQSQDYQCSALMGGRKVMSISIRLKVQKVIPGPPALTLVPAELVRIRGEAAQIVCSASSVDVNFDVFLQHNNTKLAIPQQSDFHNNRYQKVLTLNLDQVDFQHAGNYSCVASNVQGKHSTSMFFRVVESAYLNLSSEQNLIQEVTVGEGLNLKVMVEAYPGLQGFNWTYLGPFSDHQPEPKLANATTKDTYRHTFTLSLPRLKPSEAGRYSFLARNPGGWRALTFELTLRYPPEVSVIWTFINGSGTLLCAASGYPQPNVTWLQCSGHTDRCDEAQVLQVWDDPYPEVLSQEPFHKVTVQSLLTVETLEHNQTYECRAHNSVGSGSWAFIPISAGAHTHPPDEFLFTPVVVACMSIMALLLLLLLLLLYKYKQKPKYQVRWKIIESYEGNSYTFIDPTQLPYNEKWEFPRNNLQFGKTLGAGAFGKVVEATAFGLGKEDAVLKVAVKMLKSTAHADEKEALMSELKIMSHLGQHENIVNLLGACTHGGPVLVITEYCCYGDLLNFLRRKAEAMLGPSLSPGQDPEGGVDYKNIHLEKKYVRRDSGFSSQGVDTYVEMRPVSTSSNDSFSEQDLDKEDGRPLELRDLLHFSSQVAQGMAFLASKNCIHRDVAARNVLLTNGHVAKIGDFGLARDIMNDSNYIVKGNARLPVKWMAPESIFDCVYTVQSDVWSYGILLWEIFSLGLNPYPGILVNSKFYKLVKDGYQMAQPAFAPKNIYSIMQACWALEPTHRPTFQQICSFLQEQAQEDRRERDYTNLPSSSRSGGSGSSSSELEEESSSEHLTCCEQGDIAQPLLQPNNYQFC
Description: as §1, §2

Gα12 = biological target: T6, Gα12 (Homo sapiens, UniProt Q03113); assay: Gα12 luciferase reporter assay in hTERT-SRE immortalized airway smooth muscle cells, carbachol stimulated; assay type: cell-based; conditions: carbachol (CCh) stimulated, dose response
T6 sequence (Q03113 1-381): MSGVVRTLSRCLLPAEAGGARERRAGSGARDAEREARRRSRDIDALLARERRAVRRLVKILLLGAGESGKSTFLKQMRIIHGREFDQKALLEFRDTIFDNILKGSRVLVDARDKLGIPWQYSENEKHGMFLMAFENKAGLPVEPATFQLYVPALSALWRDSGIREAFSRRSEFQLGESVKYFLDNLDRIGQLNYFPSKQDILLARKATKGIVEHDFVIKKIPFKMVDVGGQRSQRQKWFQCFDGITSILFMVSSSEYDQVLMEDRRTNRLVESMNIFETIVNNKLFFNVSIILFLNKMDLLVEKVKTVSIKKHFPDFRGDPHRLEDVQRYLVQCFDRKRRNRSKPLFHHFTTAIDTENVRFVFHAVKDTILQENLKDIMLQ
Excerpt: FIGS. 1A-1C show an experimental approach to the identification of Gα12 modulators using hTERT-SRE human telomerase reverse transcriptase immortalized airway smooth muscle cells. FIG. 1A: provides a schematic representation of Gα12-activated luciferase reporter. […] FIG. 1C: provides a detailed schematic showing the downstream effects of Gα12/13 activation and/or inhibition, wherein serum response element (SRE) may be detected by a luciferase assay, and pAKT and pMLC may be detected by Western blotting. A Gα12 luciferase reporter assay was used to evaluate the potential of analogues of compound 1 as bronchodilators (FIGS. 2A-2C), wherein the assay utilized hTERT-SRE telomerase reverse transcriptase immortalized airway smooth muscle cells. In certain embodiments, the Gα12 pathway is activated with carbachol (CCh), resulting in downstream transcription of a […]/luciferase fusion protein (FIG. 1A), and consequently, a fluorescence signal (FIG. 1B). In certain embodiments, detection of a decrease in observed fluorescent signal indicates inhibition of Gα12. Further, activation of the Gα12 pathway results in elevated levels of phosphorylated AKT (pAKT) and MLC (pMLC) (FIG. 1C). In certain embodiments, detection of a decrease in pAKT and/or pMLC indicates inhibition of Gα12.

O=C(CCn1ncc2ccccc21)N1CCOC(c2ccc(Cc3ccc(F)cc3)cn2)C1 (centres unmarked) [compound 1, 1-(2-(5-(4-fluorobenzyl)pyridin-2-yl)morpholino)-3-(1H-indazol-1-yl)propan-1-one]
pMLC [1]: decreased | activity at 1 µM (mTOR(h); compound at 1 μM): 103% | activity at 10 µM (mTOR(h); compound at 10 μM): 104% | activity at 100 µM (mTOR(h); compound at 100 μM): 70% | Aggregate Mean (of raw counts) (PI3Kδ; compound at 1 μM): 16175 | activity at 1 µM (PI3Kδ; compound at 1 μM, read-out: Kinase Activity (%), mean of replicates): 91% | Raw Counts (PI3Kδ; compound at 1 μM, single replicates): 15209.80926 and 17139.70182 | Kinase Activity (%) (PI3Kδ; compound at 1 μM, single replicates, 1 µM): 86% | activity at 1 µM (PI3Kδ; compound at 1 μM, single replicates, read-out: Kinase Activity (%)): 95% | Aggregate Mean (of raw counts) (PI3Kδ; compound at 10 μM): 15960 | activity at 10 µM (PI3Kδ; compound at 10 μM, read-out: Kinase Activity (%), mean of replicates): 92% | Raw Counts (PI3Kδ; compound at 10 μM, single replicates): 15948.27586 and 15971.06288 | activity at 10 µM (PI3Kδ; compound at 10 μM, single replicates, read-out: Kinase Activity (%)): 92% | Aggregate Mean (of raw counts) (PI3Kδ; compound at 100 μM): 17900 | activity at 100 µM (PI3Kδ; compound at 100 μM, read-out: Kinase Activity (%), mean of replicates): 83% | Raw Counts (PI3Kδ; compound at 100 μM, single replicates): 17495.26814 and 18305.46265 | Kinase Activity (%) (PI3Kδ; compound at 100 μM, single replicates, 100 µM): 81% | activity at 100 µM (PI3Kδ; compound at 100 μM, single replicates, read-out: Kinase Activity (%)): 85% | PRAK/MAPKAPK5 inhibition, dose dependence (PRAK(h)/MAPKAPK5; 1, 10 and 100 μM): inhibited in a dose-dependent manner | activity at 1 µM (PRAK(h)/MAPKAPK5; compound at 1 μM, read-out: PRAK(h)/MAPKAPK5 kinase activity (human kinase inhibition data)): 115% | activity at 10 µM (PRAK(h)/MAPKAPK5; compound at 10 μM, read-out: PRAK(h)/MAPKAPK5 kinase activity (human kinase inhibition data)): 92% | activity at 100 µM (PRAK(h)/MAPKAPK5; compound at 100 μM, read-out: PRAK(h)/MAPKAPK5 kinase activity (human kinase inhibition data)): 40% | activity at 1 µM (ATR/ATRIP(h); compound at 1 μM): 101% | activity at 10 µM (ATR/ATRIP(h); compound at 10 μM): 91% | activity at 100 µM (ATR/ATRIP(h); compound at 100 μM): 65% | activity at 1 µM (Fms(h); compound at 1 μM): 95% | activity at 10 µM (Fms(h); compound at 10 μM): 94% | activity at 100 µM (Fms(h); compound at 100 μM): 64% | modulation of Gα12 luciferase reporter signal (agonist/antagonist) (Gα12): inhibition
